# Data taken from patent US20250171430A1, “PYRAZOLYL COMPOUNDS AS KV7 CHANNEL ACTIVATORS” (Biohaven Therapeutics Ltd., priority 2022, published 2025).
# Target: T1, Kv7.2/7.3 (Homo sapiens, UniProt O43525+O43526)
# T1 construct: Kv7.2 tetracycline-induced, Kv7.3 constitutive
# Assay: Kv7.2/7.3 Activation Assay (Thallium Flux Assay)
# Assay type: cell-based
# Settings: hKV7.2/7.3 cell line; test compound at single concentration of 10 μM; fluorescence at 90 sec normalized to positive control (retigabine, 30 μM)
# Excerpt: The Thallium Flux Assay is used as a surrogate indicator of potassium channel activity.
# The experimental protocol was adapted from the FluxOR™ II Green Potassium Ion Channel Assay User Guide (Pub. No. MAN0016084, Invitrogen). Conditions were optimized for the Kv7.2/7.3 cell line.
# Cell Line: The hKV7.2/7.3 cell line was obtained from Chantest (cat. #CT6147).
# Cell Culture: Kv7.2/7.3 cells were maintained in a media containing DMEM/F12; 50/50 (Fisher 11-330), 10% Fetal Bovine Serum (FBS) (Fisher 26-140), 100 units/mL Penicillin-Streptomycin (Fisher 15-140), 0.005 mg/ml Blasticidin (InvivoGen ant-bl-1), 0.5 mg/mL Geneticin (InvivoGen ant-gn-5), and 0.1 mg/mL Zeocin (Fisher R25001). One day prior to experimentation, cells were plated in 96 well clear bottom plates (Corning cat. #353219) in a media without Blasticidin, Geneticin, or Zeocin. In this cell line Kv7.3 channel expression is controlled by a constitutive promoter. Kv7.2 channel expression was induced by adding tetracycline (Sigma T7660) at a final concentration of 10 ng/mL overnight in a cell culture incubator at 37° C. and 5% CO2. On the day of assay, the cell culture medium in the 96-well plates was replaced by assay buffer containing the thallium-sensitive fluorescent sensor, FluxOR II Green prepared according to manufacturer's instructions. The 96-well plates were then incubated for 1 h at 37° C. Following the incubation, the FluxOR II Green-containing solution was replaced with extracellular solution.
# Test Compound Plates: The test compound is diluted in a mixture of 0.1% DMSO/extracellular solution at a single concentration of 10 μM. Dilutions were made on a Biomek NXP (BECKMAN COULTER). Extracellular solution contained (in mM: 145 NaCl, 4 KCl, 2 CaCl2), 1 MgCl2, 10 HEPES, and 10 Glucose, pH 7.4).
# Measurement and data analysis: Thallium-flux-mediated changes in intracellular fluorescence were made using a plate reader (Enspire, Perkin Elmer) set with an excitation wavelength of 475 nm and an emission wavelength of 530 nm. After a 15 sec baseline measurement, the stimulus buffer containing thallium and potassium was added to the 96-well plate containing FluxOR II Green-loaded cells and test compounds. Fluorescence values at 90 sec were normalized to the positive control (retigabine, 30 μM) and test compound activities were assigned categories according to the formula: “No Activity <0.15, “+” Moderate Activity 0.15-0.7, and “++” High Activity >0.7.
row,Kv7.2/7.3 Activity,Structure (SMILES)
1,++ (“++” High Activity ≥ 0.7),"COc1ccc(-c2c(C3CCC3)c(NC(=O)C[C@@H]3CC(F)(F)C3(F)F)nn2C)cc1 [Compound 56, (R)-N-(4-cyclobutyl-5-(4-methoxyphenyl)-1-methyl-1H-pyrazol-3-yl)-2-(2,2,3,3-tetrafluorocyclobutyl)acetamide]"
2,++ (“++” High Activity ≥ 0.7),"COc1ccc(-c2c(C3CCC3)c(NC(=O)C[C@H]3CC(F)(F)C3(F)F)nn2C)cc1 [Compound 57, (S)-N-(4-cyclobutyl-5-(4-methoxyphenyl)-1-methyl-1H-pyrazol-3-yl)-2-(2,2,3,3-tetrafluorocyclobutyl)acetamide]"
3,++ (“++” High Activity ≥ 0.7),"O=C(C[C@@H]1CC(F)(F)C1(F)F)Nc1nn(CCO)c(-c2ccc(F)cc2)c1C1CCC1 [Compound 58, (R)-N-(4-cyclobutyl-5-(4-fluorophenyl)-1-(2-hydroxyethyl)-1H-pyrazol-3-yl)-2-(2,2,3,3-tetrafluorocyclobutyl)acetamide]"
4,+ (“+” Moderate Activity 0.15-0.7),"Cn1nc(NC(=O)C[C@@H]2CC(F)(F)C2(F)F)c(C2CCC2)c1-c1cnc(C(F)(F)F)s1 [Compound 59, (R)-N-(4-cyclobutyl-1-methyl-5-(2-(trifluoromethyl)thiazol-5-yl)-1H-pyrazol-3-yl)-2-(2,2,3,3-tetrafluorocyclobutyl)acetamide]"
5,+ (“+” Moderate Activity 0.15-0.7),"Cn1nc(NC(=O)C[C@H]2CC(F)(F)C2(F)F)c(C2CCC2)c1-c1cnc(C(F)(F)F)s1 [Compound 60, (S)-N-(4-cyclobutyl-1-methyl-5-(2-(trifluoromethyl)thiazol-5-yl)-1H-pyrazol-3-yl)-2-(2,2,3,3-tetrafluorocyclobutyl)acetamide]"
6,++ (“++” High Activity ≥ 0.7),"Cn1nc(NC(=O)C[C@@H]2CC(F)(F)C2(F)F)c(C2CCC2)c1CCc1ccccc1 [Compound 61, (R)-N-(4-cyclobutyl-1-methyl-5-phenethyl-1H-pyrazol-3-yl)-2-(2,2,3,3-tetrafluorocyclobutyl)acetamide]"
7,++ (“++” High Activity ≥ 0.7),"Cn1nc(NC(=O)C[C@H]2CC(F)(F)C2(F)F)c(C2CCC2)c1CCc1ccccc1 [Compound 62, (S)-N-(4-cyclobutyl-1-methyl-5-phenethyl-1H-pyrazol-3-yl)-2-(2,2,3,3-tetrafluorocyclobutyl)acetamide]"
8,++ (“++” High Activity ≥ 0.7),"Cn1nc(NC(=O)C[C@@H]2CC(F)(F)C2(F)F)c(C2CCC2)c1Cc1ccc(OC(F)(F)F)cc1 [Compound 63, (R)-N-(4-cyclobutyl-1-methyl-5-(4-(trifluoromethoxy)benzyl)-1H-pyrazol-3-yl)-2-(2,2,3,3-tetrafluorocyclobutyl)acetamide]"
9,+ (“+” Moderate Activity 0.15-0.7),"Cn1nc(NC(=O)C[C@H]2CC(F)(F)C2(F)F)c(C2CCC2)c1Cc1ccc(OC(F)(F)F)cc1 [Compound 64, (S)-N-(4-cyclobutyl-1-methyl-5-(4-(trifluoromethoxy)benzyl)-1H-pyrazol-3-yl)-2-(2,2,3,3-tetrafluorocyclobutyl)acetamide]"
10,++ (“++” High Activity ≥ 0.7),"O=C(C[C@@H]1CC(F)(F)C1(F)F)Nc1nn(CCO)c(Cc2ccccc2)c1C1CCC1 [Compound 65, (R)-N-(5-benzyl-4-cyclobutyl-1-(2-hydroxyethyl)-1H-pyrazol-3-yl)-2-(2,2,3,3-tetrafluorocyclobutyl)acetamide]"
11,++ (“++” High Activity ≥ 0.7),"Cn1nc(NC(=O)C[C@@H]2CC(F)(F)C2(F)F)c(C2CCC2)c1C1CCCCC1 [Compound 66, (R)-N-(4-cyclobutyl-5-cyclohexyl-1-methyl-1H-pyrazol-3-yl)-2-(2,2,3,3-tetrafluorocyclobutyl)acetamide]"
12,+ (“+” Moderate Activity 0.15-0.7),"Cn1nc(NC(=O)C[C@H]2CC(F)(F)C2(F)F)c(C2CCC2)c1C1CCCCC1 [Compound 67, (S)-N-(4-cyclobutyl-5-cyclohexyl-1-methyl-1H-pyrazol-3-yl)-2-(2,2,3,3-tetrafluorocyclobutyl)acetamide]"
13,++ (“++” High Activity ≥ 0.7),"Cn1nc(NC(=O)CC(C)(C)C(F)(F)F)c(C2CCC2)c1C1CCCCC1 [Compound 68, N-(4-cyclobutyl-5-cyclohexyl-1-methyl-1H-pyrazol-3-yl)-4,4,4-trifluoro-3,3-dimethylbutanamide]"
14,+ (“+” Moderate Activity 0.15-0.7),"Cn1nc(NC(=O)CC2(C(F)(F)F)CC2)c(C2CCC2)c1C1CCCCC1 [Compound 69, N-(4-cyclobutyl-5-cyclohexyl-1-methyl-1H-pyrazol-3-yl)-2-(1-(trifluoromethyl)cyclopropyl)acetamide]"
15,++ (“++” High Activity ≥ 0.7),"Cn1nc(NC(=O)CC2CC(F)(F)C2)c(C2CCC2)c1C1CCCCC1 [Compound 70, N-(4-cyclobutyl-5-cyclohexyl-1-methyl-1H-pyrazol-3-yl)-2-(3,3-difluorocyclobutyl)acetamide]"
16,++ (“++” High Activity ≥ 0.7),"Cn1nc(NC(=O)CC2(O)CCCC2)c(C2CCC2)c1-c1ccc(OC(F)(F)F)cc1 [Compound 71, N-(4-cyclobutyl-1-methyl-5-(4-(trifluoromethoxy)phenyl)-1H-pyrazol-3-yl)-2-(1-hydroxycyclopentyl)acetamide]"
17,++ (“++” High Activity ≥ 0.7),"Cn1nc(NC(=O)CC2CC(F)(F)C2)c(C2CCC2)c1-c1ccc(OC(F)(F)F)cc1 [Compound 72, N-(4-cyclobutyl-1-methyl-5-(4-(trifluoromethoxy)phenyl)-1H-pyrazol-3-yl)-2-(3,3-difluorocyclobutyl)acetamide]"
18,++ (“++” High Activity ≥ 0.7),"Cn1nc(NC(=O)CC2(O)CCCC2)c(C2CCC2)c1-c1ccc(F)cc1 [Compound 73, N-(4-cyclobutyl-5-(4-fluorophenyl)-1-methyl-1H-pyrazol-3-yl)-2-(1-hydroxycyclopentyl)acetamide]"
19,++ (“++” High Activity ≥ 0.7),"Cn1nc(NC(=O)CC2CC(F)(F)C2)c(C2CCC2)c1-c1ccc(F)cc1 [Compound 74, N-(4-cyclobutyl-5-(4-fluorophenyl)-1-methyl-1H-pyrazol-3-yl)-2-(3,3-difluorocyclobutyl)acetamide]"
20,+ (“+” Moderate Activity 0.15-0.7),"CCOC(=O)Nc1nn(C)c(-c2ccc(F)cc2)c1C1CCC1 [Compound 75, ethyl (4-cyclobutyl-5-(4-fluorophenyl)-1-methyl-1H-pyrazol-3-yl)carbamate]"
21,++ (“++” High Activity ≥ 0.7),"O=C(CC1(C(F)(F)F)CC1)Nc1nn(CCO)c(Cc2ccccc2)c1C1CCC1 [Compound 76, N-(5-benzyl-4-cyclobutyl-1-(2-hydroxyethyl)-1H-pyrazol-3-yl)-2-(1-(trifluoromethyl)cyclopropyl)acetamide]"
22,++ (“++” High Activity ≥ 0.7),"Cn1nc(NC(=O)CC2(C(F)(F)F)CC2)c(C2CCC2)c1CC1CC1 [Compound 79, N-(4-cyclobutyl-5-(cyclopropylmethyl)-1-methyl-1H-pyrazol-3-yl)-2-(1-(trifluoromethyl)cyclopropyl)acetamide]"
23,++ (“++” High Activity ≥ 0.7),"Cn1nc(NC(=O)CC2CC(F)(F)C2)c(C2CCC2)c1CC1CC1 [Compound 80, N-(4-cyclobutyl-5-(cyclopropylmethyl)-1-methyl-1H-pyrazol-3-yl)-2-(3,3-difluorocyclobutyl)acetamide]"
24,+ (“+” Moderate Activity 0.15-0.7),"Cn1nc(NC(=O)CC2(O)CCCC2)c(C2CCC2)c1CC1CC1 [Compound 81, N-(4-cyclobutyl-5-(cyclopropylmethyl)-1-methyl-1H-pyrazol-3-yl)-2-(1-hydroxycyclopentyl)acetamide]"
25,++ (“++” High Activity ≥ 0.7),"Cn1nc(NC(=O)CC2(C(F)(F)F)CCC2)c(C2CCC2)c1-c1ccc(OC(F)(F)F)cc1 [Compound 82, N-(4-cyclobutyl-1-methyl-5-(4-(trifluoromethoxy)phenyl)-1H-pyrazol-3-yl)-2-(1-(trifluoromethyl)cyclobutyl)acetamide]"
26,++ (“++” High Activity ≥ 0.7),"Cn1nc(NC(=O)CC2(C(F)(F)F)CCC2)c(C2CCC2)c1-c1ccc(F)cc1 [Compound 83, N-(4-cyclobutyl-5-(4-fluorophenyl)-1-methyl-1H-pyrazol-3-yl)-2-(1-(trifluoromethyl)cyclobutyl)acetamide]"
